Measurements as given in patent US20230099344A1, “COMPOUNDS AND METHODS FOR THE TARGETED DEGRADATION OF IRAK-4” (Arvinas Operations, Inc., priority 2021, published 2023).

Target: T1, IRAK-4 (Homo sapiens, UniProt Q9NWZ3)
T1 sequence (Q9NWZ3 1-460): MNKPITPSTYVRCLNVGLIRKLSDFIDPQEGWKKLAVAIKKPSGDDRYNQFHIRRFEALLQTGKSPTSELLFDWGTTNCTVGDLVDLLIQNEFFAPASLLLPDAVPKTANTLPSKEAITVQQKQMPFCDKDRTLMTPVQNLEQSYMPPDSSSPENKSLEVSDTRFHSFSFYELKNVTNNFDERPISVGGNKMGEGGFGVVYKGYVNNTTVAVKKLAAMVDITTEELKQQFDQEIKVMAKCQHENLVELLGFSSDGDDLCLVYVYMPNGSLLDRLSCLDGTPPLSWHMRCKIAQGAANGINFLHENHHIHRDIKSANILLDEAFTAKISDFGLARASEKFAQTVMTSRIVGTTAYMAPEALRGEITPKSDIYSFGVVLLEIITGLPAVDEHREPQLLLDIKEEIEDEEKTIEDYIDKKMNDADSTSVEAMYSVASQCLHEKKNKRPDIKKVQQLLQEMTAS
Assay: IRAK-4 ELISA, OCI-Ly10 degradation
Type: cell-based
Set-up: endogenous in cells
Settings: treated overnight; for DC50 / OCI-LY10 Dmax: OCI-Ly10 cells; for Dmax: OCI-Ly10, OCI-Ly10 cells
Experimental: Reagents: Human IRAK-4 Matched Antibody Pair Kit (Abcam ab218182) and ELISA Accessory Pack (Abcam ab210905).
Cell Treatment and Lysis:
1. OCI-Ly10: 200,000 cells are seeded at 1×10^6/ml in 96-well U-bottom plates 200 ul per well, treated with compound the same day. Incubate overnight. 2. PBMC: 800,000 cells are seeded at 2×10^6/ml in 96-well U-bottom deep-well plates, 400 ul per well, treated with compound the same day. Incubate overnight.
Cell lysate is collected and analyzed by ELISA for IRAK-4 levels.

Row | Structure (SMILES) | DC50 | Dmax | OCI-LY10 Dmax
1 | O=C1CCC(N2C(=O)c3ccc(CN4CCC(n5cc6cc(NC(=O)c7cnn8cccnc78)c(OCC7CC7)cc6n5)CC4)cc3C2=O)C(=O)N1 (stereo not drawn) [Example 123] | ≥ 100 nM |  | 
2 | O=C1CCC(N2C(=O)c3ccc(OCCN4CCC(n5cc6cc(NC(=O)c7cnn8cccnc78)c(OCC7CC7)cc6n5)CC4)cc3C2=O)C(=O)N1 (stereo not drawn) [Example 125] | 10 to 50 nM | 70 to 80% | 
3 | O=C1CCC(N2C(=O)c3ccc(CCN4CCC(n5cc6cc(NC(=O)c7cnn8cccnc78)c(OCC7CC7)cc6n5)CC4)cc3C2=O)C(=O)N1 (stereo not drawn) [Example 127] | 10 to 50 nM | ≥ 90% | 
4 | O=C1CCC(N2Cc3cc(N4CCC(CN5CCC(n6cc7cc(NC(=O)c8cnn9cc(Cl)cnc89)c(OCC8CC8)cc7n6)CC5)CC4)ccc3C2=O)C(=O)N1 (stereo not drawn) [Example 129] | < 10 nM | 80 to 90% | 
5 | Cc1cnc2c(C(=O)Nc3cc4cn(C5CCN(CC6CCN(c7ccc8c(c7)C(=O)N(C7CCC(=O)NC7=O)C8=O)CC6)CC5)nc4cc3OCC3CC3)cnn2c1 (stereo not drawn) [Example 130] | 50 to 100 nM | ≥ 90% | 
6 | O=C1CCC(N2Cc3cc(N4CCC(CN5CCC(n6cc7cc(NC(=O)c8cnn9cccnc89)c(C8CC8)cc7n6)CC5)CC4)ccc3C2=O)C(=O)N1 (stereo not drawn) [Example 135] | < 10 nM | 80 to 90% | 
7 | COc1cc2nn(C3CCN(CC4CCN(c5ccc6c(c5)C(=O)N(C5CCC(=O)NC5=O)C6=O)CC4)CC3)cc2cc1NC(=O)c1cnn2cc(C)cnc12 (stereo not drawn) [Example 140] | 10 to 50 nM | 80 to 90% | 
8 | COc1cc2nn(C3CCN(CCc4ccc5c(c4)C(=O)N(C4CCC(=O)NC4=O)C5=O)CC3)cc2cc1NC(=O)c1cnn2cccnc12 (stereo not drawn) [Example 144] | ≥ 100 nM |  | 
9 | COc1cc2nn([C@H]3CCN(CC4CCN(c5ccc6c(c5)CN(C5CCC(=O)NC5=O)C6=O)CC4)C[C@@H]3F)cc2cc1NC(=O)c1cnn2cccnc12 (stereo partly drawn) [Example 145] | 10 to 50 nM | ≥ 90% | 
10 | COc1cc2nn(C3CN(CC4CCN(c5ccc6c(c5)C(=O)N(C5CCC(=O)NC5=O)C6=O)CC4)C3)cc2cc1NC(=O)c1cnn2cccnc12 (stereo not drawn) [Example 146] | ≥ 100 nM |  | 
11 | O=C1CCC(N2Cc3cc(N4CCN(CCN5CCC(n6cc7cc(NC(=O)c8cnn9cccnc89)c(OCC8CC8)cc7n6)CC5)CC4)ccc3C2=O)C(=O)N1 (stereo not drawn) [Example 160, N-(6-(cyclopropylmethoxy)-2-(1-(2-(4-(2-(2,6-dioxopiperidin-3-yl)-1-oxoisoindolin-5-yl)piperazin-1-yl)ethyl)piperidin-4-yl)-2H-indazol-5-yl)pyrazolo[1,5-a]pyrimidine-3-carboxamide] | < 10 nM | ≥ 90% | 
12 | O=C1CCC(N2C(=O)c3ccc(N4CC(CN5CCC(n6cc7cc(NC(=O)c8cnn9cccnc89)c(OCC8CC8)cc7n6)CC5)C4)cc3C2=O)C(=O)N1 (stereo not drawn) [Example 162] | < 10 nM | ≥ 90% | 
13 | O=C1CCC(N2C(=O)c3ccc(N4CC(N5CCC(n6cc7cc(NC(=O)c8cnn9cccnc89)c(OCC8CC8)cc7n6)CC5)C4)cc3C2=O)C(=O)N1 (stereo not drawn) [Example 163] | 10 to 50 nM | ≥ 90% | 
14 | O=C1CCC(N2C(=O)c3ccc(N4CC(CN5CCC(n6cc7cc(CC(=O)c8cnn9cc(Cl)cnc89)c(OCC8CC8)cc7n6)CC5)C4)cc3C2=O)C(=O)N1 (stereo not drawn) [Example 164] | 10 to 50 nM | ≥ 90% | 
15 | CC1(CN2CCC(n3cc4cc(NC(=O)c5cnn6cccnc56)c(OCC5CC5)cc4n3)CC2)CN(c2ccc3c(c2)C(=O)N(C2CCC(=O)NC2=O)C3=O)C1 (stereo not drawn) [Example 168] | 10 to 50 nM | ≥ 90% | 
16 | O=C1CCC(N2C(=O)c3ccc(N4CCC([C@H](F)Cn5cc6cc(NC(=O)c7cnn8cccnc78)c(OCC7CC7)cc6n5)CC4)cc3C2=O)C(=O)N1 (stereo partly drawn) [Example 171] | 50 to 100 nM | 70 to 80% | 
17 | O=C1CCC(N2C(=O)c3ccc(N4CC(COC[C@H](F)Cn5cc6cc(NC(=O)c7cnn8cccnc78)c(OCC7CC7)cc6n5)C4)cc3C2=O)C(=O)N1 (stereo partly drawn) [Example 172] | ≥ 100 nM | 80 to 90% | 
18 | O=C1CCC(N2C(=O)c3ccc(C#CCN4CCC(n5cc6cc(NC(=O)c7cnn8cccnc78)c(OCC7CC7)cc6n5)CC4)cc3C2=O)C(=O)N1 (stereo not drawn) [Example 178] | ≥ 100 nM | 80 to 90% | 
19 | O=C1CCC(N2Cc3cc(C#CCN4CCC(n5cc6cc(NC(=O)c7cnn8cccnc78)c(OCC7CC7)cc6n5)CC4)ccc3C2=O)C(=O)N1 (stereo not drawn) [Example 179] | ≥ 100 nM | < 70% | 
20 | O=C1CCC(N2C(=O)c3ccc(N4CCN(CCOC[C@H](F)Cn5cc6cc(NC(=O)c7cnn8cccnc78)c(OCC7CC7)cc6n5)CC4)cc3C2=O)C(=O)N1 (stereo partly drawn) [Example 180] | 10 to 50 nM | ≥ 90% | 

Row | Structure (SMILES) | DC50 | Dmax | OCI-LY10 Dmax
21 | O=C1CCC(N2C(=O)c3ccc(N4CCC(COC[C@H](F)Cn5cc6cc(NC(=O)c7cnn8cccnc78)c(OCC7CC7)cc6n5)CC4)cc3C2=O)C(=O)N1 (stereo partly drawn) [Example 181] | ≥ 100 nM | 80 to 90% | 
22 | COc1cc2nn(C3CCN(CC4CCN(c5ccc6c(c5)C(=O)N(C5CCC(=O)NC5=O)C6=O)CC4)CC3)cc2cc1NC(=O)c1cnn2cccnc12 (stereo not drawn) [Example 201] | < 10 nM | ≥ 90% | 
23 | COc1cc2nn(C3CCN(CC4CN(c5ccc6c(c5)C(=O)N(C5CCC(=O)NC5=O)C6=O)C4)CC3)cc2cc1NC(=O)c1cnn2cc(Cl)cnc12 (stereo not drawn) [Example 203] | < 10 nM | ≥ 90% | 
24 | COc1cc2nn(C3CCN(CC#Cc4ccc5c(c4)C(=O)N(C4CCC(=O)NC4=O)C5=O)CC3)cc2cc1NC(=O)c1cnn2cccnc12 (stereo not drawn) [Example 204] | 50 to 100 nM | < 70% | 
25 | COc1cc2nn(C3CCN(C4CN(c5ccc6c(c5)C(=O)N(C5CCC(=O)NC5=O)C6=O)C4)CC3)cc2cc1NC(=O)c1cnn2cccnc12 (stereo not drawn) [Example 205] | < 10 nM | 80 to 90% | 
26 | COc1cc2nn(C3CCN(C(C)(C)C4CN(c5ccc6c(c5)C(=O)N(C5CCC(=O)NC5=O)C6=O)C4)CC3)cc2cc1NC(=O)c1cnn2cccnc12 (stereo not drawn) [Example 206] | < 10 nM | ≥ 90% | 
27 | COc1cc2nn([C@H]3CCN(CC4CCN(c5ccc6c(c5)C(=O)N(C5CCC(=O)NC5=O)C6=O)CC4)C[C@@H]3F)cc2cc1NC(=O)c1cnn2cccnc12 (stereo partly drawn) [Example 208] | 10 to 50 nM | ≥ 90% | 
28 | COc1cc2nn(C3CCN(CC4CN(c5ccc6c(c5)C(=O)N(C5CCC(=O)NC5=O)C6=O)C4)C3)cc2cc1NC(=O)c1cnn2cccnc12 (stereo not drawn) [Example 209] | ≥ 100 nM |  | 
29 | COc1cc2nn(C3CCN(CC4CCN(c5ccc6c(c5)C(=O)N(C5CCC(=O)NC5=O)C6=O)CC4)C3)cc2cc1NC(=O)c1cnn2cccnc12 (stereo not drawn) [Example 210] | ≥ 100 nM |  | 
30 | COc1cc2nn([C@H]3CC[C@@H](OC4CN(c5ccc6c(c5)C(=O)N(C5CCC(=O)NC5=O)C6=O)C4)CC3)cc2cc1NC(=O)c1cnn2cccnc12 (stereo partly drawn) [Example 211] | ≥ 100 nM |  | 
31 | COc1cc2nn(C[C@@H](F)COCC3CCN(c4ccc5c(c4)C(=O)N(C4CCC(=O)NC4=O)C5=O)CC3)cc2cc1NC(=O)c1cnn2cccnc12 (stereo partly drawn) [Example 213] | ≥ 100 nM | < 70% | 
32 | O=C1CCC(NC(=O)c2ccc(N3CCC(CN4CCC(n5cc6cc(NC(=O)c7cnn8cc(Cl)cnc78)c(OCC7CC7)cc6n5)CC4)CC3)cc2F)C(=O)N1 (stereo not drawn) [Example 289] | 10 to 50 nM | ≥ 90% | 
33 | O=C1CCC(NC(=O)c2ccc(N3CCC(CN4CCC(n5cc6cc(NC(=O)c7cnn8cccnc78)c(OCC7CC7)cc6n5)CC4)CC3)cc2F)C(=O)N1 (stereo not drawn) [Example 290] | 50 to 100 nM |  | D (D represents a Dmax value <70)
34 | COc1cc2nn(C3CCN(CC4CN(c5ccc(C(=O)NC6CCC(=O)NC6=O)c(F)c5)C4)CC3)cc2cc1NC(=O)c1cnn2cccnc12 (stereo not drawn) [Example 294] | 10 to 50 nM | 80 to 90% | 
35 | COc1cc2nn(C3CCN(CC4CCN(c5ccc(C(=O)NC6CCC(=O)NC6=O)c(F)c5)CC4)CC3)cc2cc1NC(=O)c1cnn2cccnc12 (stereo not drawn) [Example 295] | 10 to 50 nM | ≥ 90% | 
36 | O=C1CCC(NC(=O)c2ccc(N3CC(CN4CCC(n5cc6cc(NC(=O)c7cnn8cc(Cl)cnc78)c(OCC7CC7)cc6n5)CC4)C3)cc2F)C(=O)N1 (stereo not drawn) [Example 299] | 10 to 50 nM | ≥ 90% | 
37 | COc1cc2nn([C@H]3CC[C@@H](N(C)C4CN(c5ccc6c(c5)C(=O)N(C5CCC(=O)NC5=O)C6=O)C4)CC3)cc2cc1NC(=O)c1cnn2cccnc12 (stereo partly drawn) [Example 333] | ≥ 100 nM |  | 
38 | COc1cc2nn([C@H]3CC[C@H](N(C)CC#Cc4ccc5c(c4)C(=O)N(C4CCC(=O)NC4=O)C5=O)CC3)cc2cc1NC(=O)c1cnn2cccnc12 (stereo partly drawn) [Example 340] | 10 to 50 nM |  | A (A represents a Dmax value ≥90)
39 | COc1cc2nn(C3CCN(CC4CN(c5ccc6c(c5)n(C)c(=O)n6C5CCC(=O)NC5=O)C4)CC3)cc2cc1NC(=O)c1cnn2cccnc12 (stereo not drawn) [Example 380] | ≥ 100 nM |  | 
40 | CC(C)(O)c1cc2nn(C3CCN(CC4CN(c5ccc6c(c5)C(=O)N(C5CCC(=O)NC5=O)C6=O)C4)CC3)cc2cc1NC(=O)c1cnn2cc(Cl)cnc12 (stereo not drawn) [Example 391, 6-chloro-N-(2-(1-((1-(2-(2,6-dioxopiperidin-3-yl)-1,3-dioxoisoindolin-5-yl)azetidin-3-yl)methyl)piperidin-4-yl)-6-(2-hydroxypropan-2-yl)-2H-indazol-5-yl)pyrazolo[1,5-a]pyrimidine-3-carboxamide] | 10 to 50 nM | 80 to 90% | 
